Data on five compounds can be found in ChEMBL document CHEMBL3808386, “Targeting Mitogen-Activated Protein Kinase-Activated Protein Kinase 2 (MAPKAPK2, MK2): Medicinal Chemistry Efforts To Lead Small Molecule Inhibitors to Clinical Trials” (J Med Chem, 2016).

pIC50: −log10 of the molar value. A value given as a limit tells only on which side of the number the result lay.

Series [1] deals with Fibroblast. In words: Inhibition of TGF-beta1-induced collagen type 1 expression in serum-starved human keloid fibroblasts at 10 uM preincubated for 2 hrs followed TGF-beta1 addition measured after 24 hrs by Western blot analysis relative to control. Format: functional.
Series [2] addresses T1, MAP kinase-activated protein kinase 2 (Homo sapiens, UniProt P49137). In words: Inhibition of recombinant human N-terminal GST-tagged MK2 (46 to 400 residues) expressed in Escherichia coli in presence of radiolabelled ATP by radiometric assay.
Target sequence in this assay (P49137 whole entry, the tested form may be a part): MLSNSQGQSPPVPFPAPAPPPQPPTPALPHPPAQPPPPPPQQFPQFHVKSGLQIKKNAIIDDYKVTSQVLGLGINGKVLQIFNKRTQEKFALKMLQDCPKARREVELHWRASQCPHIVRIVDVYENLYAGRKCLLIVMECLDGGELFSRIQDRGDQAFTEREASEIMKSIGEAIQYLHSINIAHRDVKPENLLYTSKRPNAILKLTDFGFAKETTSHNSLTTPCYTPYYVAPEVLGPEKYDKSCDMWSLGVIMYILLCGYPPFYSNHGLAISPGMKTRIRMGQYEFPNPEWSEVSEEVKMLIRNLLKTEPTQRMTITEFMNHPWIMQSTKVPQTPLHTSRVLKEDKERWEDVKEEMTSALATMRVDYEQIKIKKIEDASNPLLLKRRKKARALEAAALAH
Series [3] deals with Mitogen-activated protein kinase 14 (Homo sapiens) (UniProt Q16539). As to the kind of experiment: Inhibition of full length recombinant human N-terminal GST-tagged p38alpha MAP kinase expressed in Escherichia coli assessed as residual activity at 30 uM in presence of radiolabelled ATP by radiometric assay relative to control.
Mitogen-activated protein kinase 14 (Homo sapiens), sequence (Q16539 whole entry, the tested form may be a part): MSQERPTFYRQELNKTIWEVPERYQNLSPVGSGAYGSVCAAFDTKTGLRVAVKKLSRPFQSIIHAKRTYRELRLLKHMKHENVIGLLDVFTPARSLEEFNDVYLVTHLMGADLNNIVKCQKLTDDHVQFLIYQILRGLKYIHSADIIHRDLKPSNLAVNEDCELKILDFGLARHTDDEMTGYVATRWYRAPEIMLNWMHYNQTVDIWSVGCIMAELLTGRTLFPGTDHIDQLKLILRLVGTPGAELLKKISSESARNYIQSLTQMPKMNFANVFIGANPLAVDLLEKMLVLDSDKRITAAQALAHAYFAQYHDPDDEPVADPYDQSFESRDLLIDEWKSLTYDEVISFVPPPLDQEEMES
The target of series [4] is Myosin light chain kinase, smooth muscle (Homo sapiens) (UniProt Q15746). As to the kind of experiment: Inhibition of recombinant human N-terminal His6-tagged MLCK (1425 to 1771 residues) expressed in baculovirus infected Sf21 cells assessed as residual activity at 30 uM in presence of radiolabelled ATP by radiometric assay relative to control.
Series [5] has as its target T2, Interleukin-1 receptor-associated kinase 4 (Homo sapiens) (UniProt Q9NWZ3).
T2 sequence (whole entry): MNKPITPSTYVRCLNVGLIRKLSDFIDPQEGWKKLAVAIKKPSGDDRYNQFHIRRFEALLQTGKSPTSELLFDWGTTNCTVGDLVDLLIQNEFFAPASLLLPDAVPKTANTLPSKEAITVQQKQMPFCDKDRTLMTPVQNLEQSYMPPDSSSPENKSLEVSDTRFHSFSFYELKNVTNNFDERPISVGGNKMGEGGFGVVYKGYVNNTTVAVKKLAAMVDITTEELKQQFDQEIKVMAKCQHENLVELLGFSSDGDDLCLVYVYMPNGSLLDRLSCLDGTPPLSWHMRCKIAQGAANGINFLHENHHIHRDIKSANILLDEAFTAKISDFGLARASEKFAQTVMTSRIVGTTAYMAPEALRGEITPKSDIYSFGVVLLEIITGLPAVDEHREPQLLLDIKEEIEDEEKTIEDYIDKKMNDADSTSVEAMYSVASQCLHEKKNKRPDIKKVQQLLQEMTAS
In words: Inhibition of full length recombinant human N-terminal His6-tagged IRAK4 expressed in baculovirus infected Sf21 cells assessed as residual activity at 30 uM in presence of radiolabelled ATP by radiometric assay relative to control.

Series [6] addresses RAC-beta serine/threonine-protein kinase (Homo sapiens) (UniProt P31751). As to the kind of experiment: Inhibition of recombinant human N-terminal His6-tagged PKBbeta (120 to 481 residues) expressed in baculovirus infected Sf21 cells assessed as residual activity at 30 uM in presence of radiolabelled ATP by radiometric assay relative to control.
Series [7] concerns the target Protein kinase C delta type (Homo sapiens) (UniProt Q05655). As to the kind of experiment: Inhibition of recombinant human N-terminal His6-tagged amino acids 2-end of PKCdelta expressed in Sf21 cells assessed as residual activity at 30 uM in presence of radiolabelled ATP by radiometric assay relative to control.
The target in series [8] is Rho-associated protein kinase 1 (Homo sapiens) (UniProt Q13464). As to the kind of experiment: Inhibition of recombinant human N-terminal His6-tagged ROCK1 (17 to 535 residues) expressed in baculovirus infected Sf21 cells assessed as residual activity at 30 uM in presence of radiolabelled ATP by radiometric assay relative to control.
Rho-associated protein kinase 1 (Homo sapiens), sequence (Q13464 2-1354 limits assumed): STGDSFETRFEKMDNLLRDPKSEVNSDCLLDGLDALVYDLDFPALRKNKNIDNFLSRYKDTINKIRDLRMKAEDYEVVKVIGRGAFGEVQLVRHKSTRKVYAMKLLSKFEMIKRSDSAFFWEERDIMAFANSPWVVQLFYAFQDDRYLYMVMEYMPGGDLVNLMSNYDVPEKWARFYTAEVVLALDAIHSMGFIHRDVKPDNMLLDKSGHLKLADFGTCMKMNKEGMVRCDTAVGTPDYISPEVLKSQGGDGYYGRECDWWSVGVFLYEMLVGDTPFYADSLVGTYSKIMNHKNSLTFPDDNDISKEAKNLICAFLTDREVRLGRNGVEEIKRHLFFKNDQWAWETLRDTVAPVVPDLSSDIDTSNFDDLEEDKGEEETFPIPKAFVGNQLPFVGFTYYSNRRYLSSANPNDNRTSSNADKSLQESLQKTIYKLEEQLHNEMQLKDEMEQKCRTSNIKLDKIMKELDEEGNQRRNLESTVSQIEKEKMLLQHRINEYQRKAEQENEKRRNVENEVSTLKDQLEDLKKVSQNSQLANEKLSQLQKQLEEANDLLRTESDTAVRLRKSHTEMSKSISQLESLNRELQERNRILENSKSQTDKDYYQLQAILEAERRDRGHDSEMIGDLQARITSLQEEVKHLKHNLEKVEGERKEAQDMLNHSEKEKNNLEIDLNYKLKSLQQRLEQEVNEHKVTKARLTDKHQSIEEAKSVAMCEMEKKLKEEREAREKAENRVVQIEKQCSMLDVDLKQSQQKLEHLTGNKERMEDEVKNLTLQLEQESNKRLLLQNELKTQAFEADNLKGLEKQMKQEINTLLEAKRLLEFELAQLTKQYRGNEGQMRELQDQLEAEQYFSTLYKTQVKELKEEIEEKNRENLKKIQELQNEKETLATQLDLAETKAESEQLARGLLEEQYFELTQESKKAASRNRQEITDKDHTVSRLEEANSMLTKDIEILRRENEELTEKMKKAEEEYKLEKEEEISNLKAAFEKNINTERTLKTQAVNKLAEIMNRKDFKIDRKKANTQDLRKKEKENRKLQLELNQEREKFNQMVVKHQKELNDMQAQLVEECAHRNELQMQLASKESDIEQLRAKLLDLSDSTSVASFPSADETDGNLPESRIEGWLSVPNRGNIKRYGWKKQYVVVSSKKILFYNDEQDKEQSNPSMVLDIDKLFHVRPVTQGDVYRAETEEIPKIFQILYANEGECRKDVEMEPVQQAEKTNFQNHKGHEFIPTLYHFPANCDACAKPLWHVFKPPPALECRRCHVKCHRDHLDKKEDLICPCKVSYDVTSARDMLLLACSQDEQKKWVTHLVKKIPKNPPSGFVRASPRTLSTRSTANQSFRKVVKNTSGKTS
For series [9], the target named is T1, MAP kinase-activated protein kinase 2. In words: Inhibition of recombinant human N-terminal GST-tagged MK2 (46 to 400 residues) expressed in Escherichia coli assessed as reduction in recombinant human HSP27 phosphorylation at 200 uM after 30 mins by Western blot analysis relative to control.
Target sequence in this assay (P49137 whole entry, looked up, the tested form may be a part): as the sequence (P49137 whole entry, the tested form may be a part) above
Series [10] relates to Fibroblast. As to the kind of experiment: Inhibition of TGF-beta1-induced CTGF expression in serum-starved human keloid fibroblasts at 10 uM preincubated for 2 hrs followed TGF-beta1 addition measured after 24 hrs by Western blot analysis relative to control. It counts as functional.
The target in series [11] is Mitogen-activated protein kinase 14 (Homo sapiens) (UniProt Q16539). As to the kind of experiment: Inhibition of full length recombinant human N-terminal GST-tagged p38alpha MAP kinase expressed in Escherichia coli assessed as residual activity at 300 uM in presence of radiolabelled ATP by radiometric assay relative to control.
Series [12] addresses Myosin light chain kinase, smooth muscle (Homo sapiens) (UniProt Q15746). As to the kind of experiment: Inhibition of recombinant human N-terminal His6-tagged MLCK (1425 to 1771 residues) expressed in baculovirus infected Sf21 cells assessed as residual activity at 300 uM in presence of radiolabelled ATP by radiometric assay relative to control.
The target in series [13] is T2, Interleukin-1 receptor-associated kinase 4 (Homo sapiens). As to the kind of experiment: Inhibition of full length recombinant human N-terminal His6-tagged IRAK4 expressed in baculovirus infected Sf21 cells assessed as residual activity at 300 uM in presence of radiolabelled ATP by radiometric assay relative to control.
The target of series [14] is RAC-beta serine/threonine-protein kinase (Homo sapiens) (UniProt P31751). As to the kind of experiment: Inhibition of recombinant human N-terminal His6-tagged PKBbeta (120 to 481 residues) expressed in baculovirus infected Sf21 cells assessed as residual activity at 300 uM in presence of radiolabelled ATP by radiometric assay relative to control.
RAC-beta serine/threonine-protein kinase (Homo sapiens), sequence (P31751 whole entry, the tested form may be a part): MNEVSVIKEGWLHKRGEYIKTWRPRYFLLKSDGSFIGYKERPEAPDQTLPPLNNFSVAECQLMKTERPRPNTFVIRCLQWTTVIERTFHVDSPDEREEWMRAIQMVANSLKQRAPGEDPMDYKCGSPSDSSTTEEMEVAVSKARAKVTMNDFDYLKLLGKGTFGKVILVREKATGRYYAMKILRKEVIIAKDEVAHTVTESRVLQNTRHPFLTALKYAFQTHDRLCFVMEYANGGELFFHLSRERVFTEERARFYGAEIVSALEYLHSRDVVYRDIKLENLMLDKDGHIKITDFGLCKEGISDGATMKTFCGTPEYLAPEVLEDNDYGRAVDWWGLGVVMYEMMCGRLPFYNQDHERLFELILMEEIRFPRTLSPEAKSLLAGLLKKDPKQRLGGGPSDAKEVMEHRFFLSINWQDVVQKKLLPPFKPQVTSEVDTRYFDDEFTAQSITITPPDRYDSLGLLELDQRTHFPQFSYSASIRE
Series [15] has as its target Protein kinase C delta type (Homo sapiens) (UniProt Q05655). As to the kind of experiment: Inhibition of recombinant human N-terminal His6-tagged amino acids 2-end of PKCdelta expressed in Sf21 cells assessed as residual activity at 300 uM in presence of radiolabelled ATP by radiometric assay relative to control.
The target in series [16] is Rho-associated protein kinase 1 (Homo sapiens) (UniProt Q13464). In words: Inhibition of recombinant human N-terminal His6-tagged ROCK1 (17 to 535 residues) expressed in baculovirus infected Sf21 cells assessed as residual activity at 300 uM in presence of radiolabelled ATP by radiometric assay relative to control.
In another series the target is Bile salt export pump (Homo sapiens, UniProt O95342). As to the kind of experiment: Inhibition of human BSEP expressed in recombinant baculovirus infected insect Sf9 cell membrane vesicles assessed as [3H]-taurocholate transport preincubated for 5 mins followed by ATP or AMP addition measured after 5 mins by scintillation counting method.
Bile salt export pump, sequence (O95342 whole entry): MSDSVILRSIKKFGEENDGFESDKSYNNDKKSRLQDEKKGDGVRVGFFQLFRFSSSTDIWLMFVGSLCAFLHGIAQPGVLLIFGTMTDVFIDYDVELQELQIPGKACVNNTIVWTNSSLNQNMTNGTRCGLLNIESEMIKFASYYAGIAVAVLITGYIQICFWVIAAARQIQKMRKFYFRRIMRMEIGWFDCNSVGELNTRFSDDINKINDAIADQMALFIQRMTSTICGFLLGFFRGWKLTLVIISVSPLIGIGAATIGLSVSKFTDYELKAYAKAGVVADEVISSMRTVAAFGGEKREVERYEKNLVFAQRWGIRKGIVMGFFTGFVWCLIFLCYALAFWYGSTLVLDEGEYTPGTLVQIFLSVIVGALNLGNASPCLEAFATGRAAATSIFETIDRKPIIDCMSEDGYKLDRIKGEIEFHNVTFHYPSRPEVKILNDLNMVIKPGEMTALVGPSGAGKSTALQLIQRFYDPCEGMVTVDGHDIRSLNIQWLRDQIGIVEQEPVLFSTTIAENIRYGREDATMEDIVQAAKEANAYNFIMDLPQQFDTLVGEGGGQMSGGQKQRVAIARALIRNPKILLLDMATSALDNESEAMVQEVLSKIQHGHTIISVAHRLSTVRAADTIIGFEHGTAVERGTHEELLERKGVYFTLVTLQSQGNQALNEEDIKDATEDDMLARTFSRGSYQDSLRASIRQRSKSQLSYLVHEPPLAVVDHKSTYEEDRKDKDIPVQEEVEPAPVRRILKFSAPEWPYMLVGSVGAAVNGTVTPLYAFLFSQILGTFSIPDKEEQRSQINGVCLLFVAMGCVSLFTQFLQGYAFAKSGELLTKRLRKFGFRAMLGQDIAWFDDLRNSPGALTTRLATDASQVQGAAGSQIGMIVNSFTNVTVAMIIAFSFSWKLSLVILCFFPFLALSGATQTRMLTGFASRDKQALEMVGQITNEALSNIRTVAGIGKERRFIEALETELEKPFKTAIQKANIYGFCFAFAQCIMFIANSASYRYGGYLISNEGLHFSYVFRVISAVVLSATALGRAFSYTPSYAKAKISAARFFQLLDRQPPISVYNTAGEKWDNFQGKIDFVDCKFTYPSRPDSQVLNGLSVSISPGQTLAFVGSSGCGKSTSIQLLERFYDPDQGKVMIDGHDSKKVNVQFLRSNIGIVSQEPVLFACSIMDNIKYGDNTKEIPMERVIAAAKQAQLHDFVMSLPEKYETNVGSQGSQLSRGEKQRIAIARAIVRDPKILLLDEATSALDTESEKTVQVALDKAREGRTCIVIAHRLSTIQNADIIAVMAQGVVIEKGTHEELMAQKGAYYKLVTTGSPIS
The subject of a further series is U-937. In words: Inhibition of LPS-induced TNFalpha production in human U937 cells preincubated for 1 hr followed by LPS addition measured after 4 hrs by electro-chemiluminescence method. Format: functional, cell-based.
Series [17] concerns the target T1, MAP kinase-activated protein kinase 2. As to the kind of experiment: Inhibition of MK2 in human U937 cells assessed as reduction in LPS-stimulated HSP27 phosphorylation at Ser82 preincubated for 1 hr followed by LPS addition measured after 30 mins by Western blot analysis. Format: cell-based, U-937.
Target sequence in this assay (P49137 whole entry, the tested form may be a part): as the sequence (P49137 whole entry, the tested form may be a part) above
In series [18] the test system is Rattus norvegicus. In words: Anti-inflammatory activity in po dosed Lewis rat model of LPS-induced acute endotoxemia inflammation assessed as inhibition of LPS-induced TNFalpha production administered through gavage pretreated for 4 hrs followed by LPS challenge measured after 90 mins by ELISA relative to control. It counts as functional.
In series [19] the test system is Rattus norvegicus. In words: Anti-inflammatory activity in Lewis rat model of Streptococcal cell wall-induced arthritis assessed as reduction in chronic hind paw swelling up to 100 mg/kg, po bid administered through gavage for 10 to 21 days measured on day 21 by displacement plethysmometric method relative to control. It counts as functional.
Series [20] is described as follows: Tmax in Sprague-Dawley rat plasma at 3 mg/kg, po. Format: ADME, organism-based.
The nature of series [21]: Terminal half life in Sprague-Dawley rat plasma at 3 mg/kg, po. It counts as ADME, organism-based. Conditions: read-out: beta t1/2 (converted).
For series [22], the system named is Canis familiaris. As to the kind of experiment: Hepatotoxicity in beagle dog assessed as increase in serum bile acids at 750 mg/kg, po qd administered as single dose through gavage by LC-MS/MS analysis relative to control. It counts as toxicity, organism-based, Canis lupus familiaris. The conditions noted are these: in vivo.
The test system of series [23] is Canis familiaris. In words: Hepatotoxicity in beagle dog assessed as increase in total bilirubin at 750 mg/kg, po qd administered as single dose through gavage by LC-MS/MS analysis relative to control. Format: toxicity, organism-based, Canis lupus familiaris. The conditions noted are these: in vivo.
Series [24] in a line: Inhibition of P-gp in MDCK-MDR1 cells after 30 mins by Calcein-AM assay. It counts as cell-based, Canis lupus familiaris.
Series [25] in a line: Inhibition of MRP2 in MDCK cells after 15 mins by Calcein-AM assay. It counts as cell-based, Canis lupus familiaris.

Protein kinase C delta type (Homo sapiens), sequence (Q05655 whole entry, looked up, the tested form may be a part): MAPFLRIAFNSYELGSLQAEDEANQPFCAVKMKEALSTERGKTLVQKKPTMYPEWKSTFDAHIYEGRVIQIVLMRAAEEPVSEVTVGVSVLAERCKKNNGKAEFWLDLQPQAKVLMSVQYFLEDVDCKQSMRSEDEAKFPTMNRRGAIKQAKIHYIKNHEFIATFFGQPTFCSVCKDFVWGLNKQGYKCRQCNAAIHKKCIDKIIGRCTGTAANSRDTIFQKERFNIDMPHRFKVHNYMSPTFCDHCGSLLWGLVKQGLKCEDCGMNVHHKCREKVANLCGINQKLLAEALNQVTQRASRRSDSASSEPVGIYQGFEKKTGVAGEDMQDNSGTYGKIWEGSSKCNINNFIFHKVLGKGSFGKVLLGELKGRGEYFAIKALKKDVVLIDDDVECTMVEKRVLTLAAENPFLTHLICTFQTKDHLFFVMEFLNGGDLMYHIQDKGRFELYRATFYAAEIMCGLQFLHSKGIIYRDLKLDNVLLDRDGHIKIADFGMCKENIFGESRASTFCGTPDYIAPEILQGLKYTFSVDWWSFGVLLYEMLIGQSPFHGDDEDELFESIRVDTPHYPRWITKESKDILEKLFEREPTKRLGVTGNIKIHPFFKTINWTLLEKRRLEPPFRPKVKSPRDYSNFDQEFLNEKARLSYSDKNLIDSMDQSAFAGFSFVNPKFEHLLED

Take `CC[C@H](C)[C@H](NC(=O)[C@H](CCCNC(=N)N)NC(=O)[C@H](CCCNC(=N)N)NC(=O)[C@H](CC(C)C)NC(=O)[C@H](Cc1c[nH]c2ccccc12)NC(=O)[C@H](C)NC(=O)[C@H](CCCCN)NC(=O)[C@@H](NC(=O)[C@H](CCCNC(=N)N)NC(=O)[C@H](CCCNC(=N)N)NC(=O)[C@H](CC(C)C)NC(=O)[C@@H](N)Cc1c[nH]c2ccccc12)[C@@H](C)CC)C(=O)N[C@@H](CCCCN)C(=O)N[C@@H](C)C(=O)N[C@@H](CC(C)C)C(=O)N[C@@H](CC(N)=O)C(=O)N[C@@H](CCCNC(=N)N)C(=O)N[C@@H](CCC(N)=O)C(=O)N[C@@H](CC(C)C)C(=O)NCC(=O)N[C@H](C(=O)N[C@@H](C)C(=O)N[C@@H](C)C(=O)O)C(C)C`: the inhibition at 10 µM in the series on Fibroblast [1] was 76%; in the series on Fibroblast [10] it was 68%. Besides, the pIC50 in series [2] was 6.13. For the same compound, the Activity in series [3] is 61%; in series [4] it was 4%; in series [5], 12%; in series [6], 18%; in series [7], 11%; in series [8] it was 0%. For the same compound, the inhibition in series [9] turned out to be 80%.

For the compound H-YARAAARQARAKALNRQLGVAA-OH, in [2], the negative-log IC50 (pIC50) was 5.24. The Activity was found to be 100% in [11]; 66% in series [12]; 68% in [13]; 96% in series [14]; 105% in series [15]; 95% in series [16].

In the case of `Cc1ccc(-c2ccc3c(ccc4sc5c(c43)NC[C@@H](C)NC5=O)n2)cn1`, the pIC50 was 5.15 at Bile salt export pump; 6.82 with U-937; 6.70 in series [17]; 5.15 in series [24]; 5.15 in [25]. In addition, the “inhibition (INH)” value in the series with Rattus norvegicus [18] is listed as over 90%; in the series with Rattus norvegicus [19], 80%. Also, the time to peak (Tmax) in series [20] is 0.167 h. Moreover, the half-life in series [21] is 9 h. Moreover, the Activity entry with Canis familiaris [22] and with Canis familiaris [23] was “<= 25000%” in each case.

As to H-KKKALNRQLGVAA-OH, the inhibition in [9] turned out to be 64%.

In the case of `COCCOCc1cccc(-c2ccc3c(ccc4sc5c(c43)NC[C@@H](C)NC5=O)n2)c1`, the pIC50 (at Bile salt export pump; in series [24]; in series [25]) was 5.15 each time.
